According to US7635722B1, “Chemical induced intracellular hyperthermia” (priority 1998, dated 2009):

Key:
Borrelia burgdorferi = experiment: DNP hyperthermia, Lyme disease (Example 3); assay type: in vivo, human
Method: Pretreatment protocol: the evening prior treatment the patient was instructed not to eat and dress in cotton undergarments. Approximately 4 hours prior to treatment 2 mg alprazolam was administered by mouth. The patient dressed themself into a dry cold water immersion suit (Stearns, previously described) with headgear. Monitoring sensors, including EKG display, IV fluids and Foley catheter were attached and the suit was zipped closed. The patient opted for oxygen supplementation. The modified face mask was connected to the TEEM 100 metabolic Analysis System for V02 measurements. Data was recorded as previously described.
The patient was infused with 1 mg/kg DNP over a 2 minute period. V02 increased and stabilized at 250 cc/min, 5.3 cc/kg/min. A second dose of 2.0 mg/kg was infused over a 2 minute period and the V02 peaked at 400 cc/min, 8.8 cc 02/kg/min. An additional dose of 1.0 mg/kg DNP was given 30 minutes after the second dose. The V02 increased and reached a stable plateau at 600 cc/min, […]. […] V02 increased back to 680-710 cc/min. […] The patient periodically requested the V02 monitoring mask be removed during the hyperthermia treatment period. They were accommodated with removal of the mask on two occasions for periods not exceeding 10 minutes. […] The treatment was terminated 4 hours and 10 minutes after the initial dose of DNP. Twenty five minutes after the patient was removed from the neoprene survival suit, the rectal core temperature dropped to 38.5° C. Normothermia was achieved approximately 60 minutes after cessation of therapy and removal from the survival suit. Approximately 6.5 to 7 hours after treatment the patient experienced chills, an increase in oral temperature to 38.7 degrees centigrade and malaise. IV fluids and the dopamine drip at 2 mcg/kg/min were restarted and the patient was closely observed. Their symptoms subsided over 3 hours and by the next day they felt active and hungry. It was surmised they may have experienced a delayed Jarisch-Herxheimer reaction. The patients monitored treatment flow chart is FIG. 18.

breast lesion = experiment: DNP enhanced infrared imaging, breast carcinoma (Example 8); assay type: in vivo, human
Method: Prediagnostic protocol: the patient was disrobed to the waist and sat with their hands interlocked over their head for a five minute equilibration period in a draft free, thermally controlled room—kept between 18° C. and 20° C. […] A baseline of 4 images consisting of an anterior, undersurface and 2 lateral views of each breast were generated by an integrated infrared imaging station consisting of a scanning mirror optical system containing a mercury-cadmium-telluride detector (Bales Scientific, CA). […] Images were stored on retrievable laser discs.
Diagnostic treatment protocol: after the above baseline studies were performed, the patient was given an initial intravenous dose of 1 mg/kg DNP and observed for a period of 20 minutes. An additional 2 mg/kg of DNP was then administered and 30 minutes thereafter, they were taken to the thermally controlled room for repeat DNP-enhanced infrared imaging. […] Repeat infrared images were then obtained under the exact protocol used for obtaining baseline studies.

[1] = test system: inner mitochondrial membrane; conditions: lowered from −180; cited from earlier work
[2] = test system: chronically HIV infected HUT-78 cells; experiment: in vitro inactivation of chronically HIV infected cells; assay type: cell-based; conditions: varying concentrations of DNP (FIG. 16)
From the text: Clinical assessment and treatment evaluation: HIV and HIV-infected T cells are known to be more sensitive to killing by heat than uninfected lymphocytes. Susceptibility to heat killing is enhanced with increased oxygen free radical production. Acute and chronically infected cells have decreased levels of manganous superoxide dismutase (MnSOD) activity. MnSOD is located exclusively in mitochondria. Mathematical modeling of human HIV production and CD4+ T cell turnover predicts that reducing both free virus and actively infected cells by a minimum of 40% with 1 hour of 42° C. therapeutic hyperthermia every third day will promote recovery of the uninfected T-cell population. Human HIV studies with extracorporeal hyperthermia of 41-42° C. have reported isolated cases of extended patient survival, elimination of detectable virus, and improvement of Kaposi's sarcoma lesions. DNP is known to generate intracellular hyperthermia and oxygen free radicals from the level of the inner mitochondrial membrane. Studies on in vitro inactivation of chronically HIV infected HUT-78 cells by various concentrations of DNP are graphically represented in FIG. 16.

[3] = test system: Echinococcus multilocularis; experiment: DNP with glucagon, hydatid disease of the liver (Example 1); assay type: in vivo, human
Method: Pretreatment protocol: the patient was given 10 mg diazepam by mouth and dressed into a modified wet suit. The wet suit was cut lengthwise at the arms and legs. Velcro strappings were attached at the cuttings for closure, rapid removal or exposure of the limb(s). After placement of monitoring sensors, they were started on IV fluids of 5% dextrose, 0.5 normal saline with 7 meq K^+, infused at an initial rate of 12 cc/kg/hr. Evaporative heat loss from the head was minimized by a plastic shower cap and towels. A 401AC temperature probe (YSI Incorporated, Yellow Springs, Ohio) was inserted 11 cm. into the rectum. […] A TEEM 100 Metabolic Analysis System (AeroSport Inc., Ann Arbor, Mich.), with a modified face mask and oxygen delivery system (38-40% 02 saturation) for patient comfort and increased accuracy, was attached to the patient. Oxygen consumption (V02), carbon dioxide production (VC02), expired air volume (VE), heart rate (HR), and Kcal of heat produced were measured in 20 second intervals and extrapolated to minute or hourly rates.
Treatment procedure: After baseline recordings of 10 minutes, the required amount of DNP to raise the initial V02 to achieve a temperature in the patient of 40° C. was calculated as described under “DNP dosage required to increase V02”. The patient was given an initial dose of 1 mg/kg of DNP, infused intravenously over a 3 minute period. […]

hepatic ischemic injury = hepatic ischemic injury by Pringle's maneuver after DNP pretreatment; assay type: in vivo; conditions: Pringle's maneuver (FIG. 22)
From the text: (§1) This method of DNP induced preconditioning could be used to decrease intimal thickening and restenosis after angioplasty, improve ischemia/reperfusion injury in organ and tissue transplantation, and improve surgical outcome of procedures that require temporary or prolonged occlusion of arterial blood flow.

Normal rat liver = experiment: reactive oxygen species formation in rat liver infused with DNP; conditions: upon cessation of uncoupling (FIG. 9)
[4] = test system: arterial catheter balloon injury; experiment: arterial catheter balloon injury after DNP pretreatment; assay type: in vivo, Sprague-Dawley rats; conditions: rats pretreated with DNP induced hyperthermia (FIG. 21)
From the text: as §1

O=[N+]([O-])c1ccc(O)c([N+](=O)[O-])c1 [DNP, 2,4-dinitrophenol]
repeat spinal fluid analysis, Borrelia DNA by PCR (Borrelia burgdorferi; after treatment): no detectable Borrelia DNA by PCR
spinal fluid culture on Barbour-Stoenner-Kelly II medium (Borrelia burgdorferi; three months later): negative
EKG (Borrelia burgdorferi; two months follow-up): resolution of their first degree A-V block
symptoms (Borrelia burgdorferi; two months follow-up): arthralgias, myalgias, malaise, fatigue and memory deficits have disappeared
bilateral global breast temperature increase (breast lesion; DNP enhanced infrared imaging): approximately 0.5 °C
increase in temperature in the palpable right breast lesion (breast lesion; DNP enhanced infrared imaging): 2.5 °C
increase in heat production above the DNP baseline increase (breast lesion; lesion versus global breast increase of 0.5° C.): 5 fold
inner mitochondrial membrane potential [1]: −145 mV
killing of chronically HIV infected HUT-78 cells [2]: killing of chronically HIV infected HUT-78 cells
serial imaging of hepatic and bone cysts ([3]; 2 and 4 weeks post treatment): hepatic and bone cyst shrinkage with increased density
magnetic resonance imaging of cysts ([3]; 4 months): complete cyst disappearance in the liver and bone
effect of DNP pretreatment before hepatic ischemic injury (hepatic ischemic injury): protective effect
formation of reactive oxygen species (Normal rat liver): threefold
proliferative arterial catheter balloon injury [4]: limitation of proliferative arterial catheter balloon injury
